Source: patent US20020002171A1, “Materials and methods for killing nematodes and nematode eggs” (priority 2000, published 2002)

Test system: Caenorhabditis elegans
Assay: C. elegans L1 nematicidal dose response in 96-well plates, 5 day visual score (Example 2; same procedure for Example 7, Table 3)
Assay type: in vivo
Parameters: key to 5 Day Visual Score V1 / 5 Day Visual Score V2 / 5 Day Visual Score V3 / 5 Day Visual Score V4 / 5 Day Visual Score V6 / 5 Day Visual Score V5 / Initial HTS Run Visual Score / Follow-up HTS Run Visual Score: Dead: only stiff L1s (no movement); Dead (L4): worms are dead, but at a later larval stage; majority of worms are L1 (based on size) worms move when plate is tapped; majority of worms are L2 (based on size); majority of worms are L3 (based on size); majority of worms are L4 (based on size); AD: majority of worms are adult; #AD: 5 adult worms or less; B!: sterile (0-25 progeny); B: low broodsize (25-100 progeny); ˜B: moderate broodsize (100-250 progeny); <: reduced broodsize (250-500 progeny); OK: no effect (˜1000+ progeny)
Conditions: Follow-up HTS run
Description: Caenorhabditis elegans adults were grown on Nematode Growth Medium (NGM) until they produced eggs, then the adults were removed.
The eggs were allowed to hatch, and the L1 larvae collected. See The Nematode Caenorhabditis elegans (1988) Cold Spring Harbor Laboratory Press. Using a Matrix Programmable Pipette, the L1s were distributed into 96-well tissue culture plates, 20 L1 in 50 μl NGM per well. Antibiotic/Antimyoticwas added to each well, and 1% by weight E. coli strain HB101. The subject anthelmintic compounds were stored at 5 mM in 100% DMSO. 0.7 μl of compounds 1-31 were added to the left-most column of wells to yield a final concentration of 70 μM in 1.4% DMSO, with 1.4% DMSO only as the control. The compounds were then subjected to 5 more 3-fold dilutions from left to right to yield 6 column concentrations of 70 μM, 23.3 μM, 7.8 μM, 2.6 μM, 0.9 μM, and 0.3 μM. Plates were stored in air-tight Rubbermaid plastic boxes at 20° C. The nematodes had cleared all control wells by day 4, and nematode viability was scored by visual examination under a 100× dissecting microsope on day 5. A visual viability scoring system was used as follows:
Column V1 has a compound concentration of 70 μM with sequential 3-fold dilutions reported in columns V2, V3, V4, V5, and V6, respectively, such that the V6 concentration was 0.3 μM.
The nematicidal activity of anthelmintic Compositions 48-168 were determined in accordance with the procedure outlined in Example 2.

Structure (SMILES) | Follow-up HTS Run % Run [%] | Follow-up HTS Run Visual Score | Follow-up HTS Run mOD [mOD]
C=CCN(CC=C)c1nc(NCc2ccc(F)cc2F)ns1 [compound 293] | 125 | L4/AD/B! | 201
FC(F)(F)c1cccc(N2CCN(c3nc(Cl)ns3)CC2)c1 [compound 338] | 116 | B (low broodsize (25-100 progeny)) | 186
CN(CCc1ccccc1)c1nc(NCc2ccc(F)cc2F)ns1 [compound 294] | 116 | B! (sterile (0-25 progeny)) | 187
Fc1cccc(F)c1CNc1nsc(N2CCN(c3cccc(C(F)(F)F)c3)CC2)n1 [compound 246] | 130 |  | 209
CCCCC(CC)CN(CC(CC)CCCC)c1nc(NC2CCCCCCCCCCC2)ns1 (centres unmarked) [compound 331] | 85 | Dead | 137
CCCCCCCCCCNc1nsc(N2CCN(c3ccc(F)cc3)CC2)n1 [compound 273] | 94 | Dead | 151
COc1ccc(CNc2nsc(N3CCN(c4ccc(F)cc4)CC3)n2)cc1 [compound 271] | 109 |  | 175

Same assay, conditions: Initial HTS run

Structure (SMILES) | Initial HTS Run % Run [%] | Initial HTS Run Visual Score | Initial HTS Run mOD [mOD]
C=CCN(CC=C)c1nc(NCc2ccc(F)cc2F)ns1 [compound 293] | 108 | L4 | 119
FC(F)(F)c1cccc(N2CCN(c3nc(Cl)ns3)CC2)c1 [compound 338] | 94 | 3AD/B | 103
CN(CCc1ccccc1)c1nc(NCc2ccc(F)cc2F)ns1 [compound 294] | 108 | L4/AD/B!-Few Eggs | 119
Fc1cccc(F)c1CNc1nsc(N2CCN(c3cccc(C(F)(F)F)c3)CC2)n1 [compound 246] | 123 | L3 | 135
CCCCC(CC)CN(CC(CC)CCCC)c1nc(NC2CCCCCCCCCCC2)ns1 (centres unmarked) [compound 331] | 95 | Dead | 104
CCCCCCCCCCNc1nsc(N2CCN(c3ccc(F)cc3)CC2)n1 [compound 273] | 101 |  | 111
COc1ccc(CNc2nsc(N3CCN(c4ccc(F)cc4)CC3)n2)cc1 [compound 271] | 101 | L4/AD/B | 111

Same assay, conditions: dose response, dilution V1, 5 day

Structure (SMILES) | 5 Day Visual Score V1
FC(F)(F)c1cccc(N2CCN(c3nc(Cl)ns3)CC2)c1 [compound 338] | Dead
CCCCC(CC)CN(CC(CC)CCCC)c1nc(NC2CCCCCCCCCCC2)ns1 (centres unmarked) [compound 331] | Dead

Same assay, conditions: dose response, dilution V1, day 5

Structure (SMILES) | 5 Day Visual Score V1
Fc1cccc(F)c1CNc1nsc(N2CCN(c3cccc(C(F)(F)F)c3)CC2)n1 [compound 246] | Dead
CCCCCCCCCCNc1nsc(N2CCN(c3ccc(F)cc3)CC2)n1 [compound 273] | Dead
COc1ccc(CNc2nsc(N3CCN(c4ccc(F)cc4)CC3)n2)cc1 [compound 271] | Dead

Same assay, conditions: dose response, dilution V2, 5 day

Structure (SMILES) | 5 Day Visual Score V2
CCCCC(CC)CN(CC(CC)CCCC)c1nc(NC2CCCCCCCCCCC2)ns1 (centres unmarked) [compound 331] | Dead

Same assay, conditions: dose response, dilution V2, day 5

Structure (SMILES) | 5 Day Visual Score V2
C=CCN(CC=C)c1nc(NCc2ccc(F)cc2F)ns1 [compound 293] | < (reduced broodsize (250-500 progeny))
CCCCCCCCCCNc1nsc(N2CCN(c3ccc(F)cc3)CC2)n1 [compound 273] | Dead

Same assay, conditions: dose response, dilution V3, 5 day

Structure (SMILES) | 5 Day Visual Score V3
FC(F)(F)c1cccc(N2CCN(c3nc(Cl)ns3)CC2)c1 [compound 338] | < (reduced broodsize (250-500 progeny))
CCCCC(CC)CN(CC(CC)CCCC)c1nc(NC2CCCCCCCCCCC2)ns1 (centres unmarked) [compound 331] | Dead

Same assay, conditions: dose response, dilution V3, day 5

Structure (SMILES) | 5 Day Visual Score V3
C=CCN(CC=C)c1nc(NCc2ccc(F)cc2F)ns1 [compound 293] | OK (no effect (˜1000+ progeny))
CN(CCc1ccccc1)c1nc(NCc2ccc(F)cc2F)ns1 [compound 294] | OK (no effect (˜1000+ progeny))
Fc1cccc(F)c1CNc1nsc(N2CCN(c3cccc(C(F)(F)F)c3)CC2)n1 [compound 246] | OK (no effect (˜1000+ progeny))
CCCCCCCCCCNc1nsc(N2CCN(c3ccc(F)cc3)CC2)n1 [compound 273] | B (low broodsize (25-100 progeny))

Same assay, conditions: dose response, dilution V4, 5 day

Structure (SMILES) | 5 Day Visual Score V4
FC(F)(F)c1cccc(N2CCN(c3nc(Cl)ns3)CC2)c1 [compound 338] | OK (no effect (˜1000+ progeny))
CCCCC(CC)CN(CC(CC)CCCC)c1nc(NC2CCCCCCCCCCC2)ns1 (centres unmarked) [compound 331] | OK (no effect (˜1000+ progeny))

Same assay, conditions: dose response, dilution V4, day 5

Structure (SMILES) | 5 Day Visual Score V4
C=CCN(CC=C)c1nc(NCc2ccc(F)cc2F)ns1 [compound 293] | OK (no effect (˜1000+ progeny))
CN(CCc1ccccc1)c1nc(NCc2ccc(F)cc2F)ns1 [compound 294] | OK (no effect (˜1000+ progeny))
Fc1cccc(F)c1CNc1nsc(N2CCN(c3cccc(C(F)(F)F)c3)CC2)n1 [compound 246] | OK (no effect (˜1000+ progeny))
CCCCCCCCCCNc1nsc(N2CCN(c3ccc(F)cc3)CC2)n1 [compound 273] | ˜B (moderate broodsize (100-250 progeny))
COc1ccc(CNc2nsc(N3CCN(c4ccc(F)cc4)CC3)n2)cc1 [compound 271] | < (reduced broodsize (250-500 progeny))

Same assay, conditions: dose response, dilution V5, 5 day

Structure (SMILES) | 5 Day Visual Score V5
FC(F)(F)c1cccc(N2CCN(c3nc(Cl)ns3)CC2)c1 [compound 338] | OK (no effect (˜1000+ progeny))
CCCCC(CC)CN(CC(CC)CCCC)c1nc(NC2CCCCCCCCCCC2)ns1 (centres unmarked) [compound 331] | OK (no effect (˜1000+ progeny))

Same assay, conditions: dose response, dilution V5, day 5

Structure (SMILES) | 5 Day Visual Score V5
C=CCN(CC=C)c1nc(NCc2ccc(F)cc2F)ns1 [compound 293] | OK (no effect (˜1000+ progeny))
CN(CCc1ccccc1)c1nc(NCc2ccc(F)cc2F)ns1 [compound 294] | OK (no effect (˜1000+ progeny))
Fc1cccc(F)c1CNc1nsc(N2CCN(c3cccc(C(F)(F)F)c3)CC2)n1 [compound 246] | OK (no effect (˜1000+ progeny))
CCCCCCCCCCNc1nsc(N2CCN(c3ccc(F)cc3)CC2)n1 [compound 273] | OK (no effect (˜1000+ progeny))
COc1ccc(CNc2nsc(N3CCN(c4ccc(F)cc4)CC3)n2)cc1 [compound 271] | OK (no effect (˜1000+ progeny))

Same assay, conditions: dose response, dilution V6, 5 day

Structure (SMILES) | 5 Day Visual Score V6
FC(F)(F)c1cccc(N2CCN(c3nc(Cl)ns3)CC2)c1 [compound 338] | < (reduced broodsize (250-500 progeny))
CCCCC(CC)CN(CC(CC)CCCC)c1nc(NC2CCCCCCCCCCC2)ns1 (centres unmarked) [compound 331] | OK (no effect (˜1000+ progeny))

Same assay, conditions: dose response, dilution V6, day 5

Structure (SMILES) | 5 Day Visual Score V6
C=CCN(CC=C)c1nc(NCc2ccc(F)cc2F)ns1 [compound 293] | OK (no effect (˜1000+ progeny))
CN(CCc1ccccc1)c1nc(NCc2ccc(F)cc2F)ns1 [compound 294] | OK (no effect (˜1000+ progeny))
Fc1cccc(F)c1CNc1nsc(N2CCN(c3cccc(C(F)(F)F)c3)CC2)n1 [compound 246] | OK (no effect (˜1000+ progeny))
CCCCCCCCCCNc1nsc(N2CCN(c3ccc(F)cc3)CC2)n1 [compound 273] | OK (no effect (˜1000+ progeny))
COc1ccc(CNc2nsc(N3CCN(c4ccc(F)cc4)CC3)n2)cc1 [compound 271] | < (reduced broodsize (250-500 progeny))
